Drawing on ChEMBL document CHEMBL1138068 (J Med Chem, 2006), this text covers Activity, IC50 and Ki for 13 compounds.

Usually IC50 stands for the midpoint of a concentration-inhibition curve. Lower therefore signals greater potency in that assay. As usually defined, the Ki is a measure of affinity in units of concentration, obtained from inhibition or displacement.

The target in one series is Cytochrome P450 1A2 (Homo sapiens, UniProt P05177). Kind of series: Inhibition of CYP1A2. In kind it is ADME.
The next series concerns the target Cytochrome P450 3A4 (Homo sapiens, UniProt P08684). Briefly: Inhibition of CYP3A4. In kind it is ADME.
The target of the next series is Cytochrome P450 2C9 (Homo sapiens, UniProt P11712). Kind of series: Inhibition of CYP2C9. In kind it is ADME.
The next series concerns the target Cytochrome P450 2D6 (Homo sapiens, UniProt P10635). Kind of series: Inhibition of CYP2D6. In kind it is ADME.
The target of another series is Cytochrome P450 2C19 (Homo sapiens, UniProt P33261). Briefly: Inhibition of CYP2C19. The format is ADME.
Series [1] has as its target Neuronal acetylcholine receptor subunit alpha-7 (Rattus norvegicus, UniProt Q05941). Kind of series: Displacement of [125I]alpha-BTX from alpha-7 nAChR in rat hippocampus membrane. The format is cell membranes. On the technique in general: In a radioligand displacement assay an active substance lowers the binding of a labelled ligand.
The target of series [2] is Neuronal acetylcholine receptor subunit alpha-7 (Homo sapiens) (UniProt P36544). Kind of series: Activity at alpha-7 nAChR assessed as stimulation of relative inward current in cultured hippocampal neurons relative to choline. The format is functional, tissue-based. The note with it: Hippocampus, filed as agonist.
Neuronal acetylcholine receptor subunit alpha-7 (Homo sapiens), sequence (P36544 whole entry): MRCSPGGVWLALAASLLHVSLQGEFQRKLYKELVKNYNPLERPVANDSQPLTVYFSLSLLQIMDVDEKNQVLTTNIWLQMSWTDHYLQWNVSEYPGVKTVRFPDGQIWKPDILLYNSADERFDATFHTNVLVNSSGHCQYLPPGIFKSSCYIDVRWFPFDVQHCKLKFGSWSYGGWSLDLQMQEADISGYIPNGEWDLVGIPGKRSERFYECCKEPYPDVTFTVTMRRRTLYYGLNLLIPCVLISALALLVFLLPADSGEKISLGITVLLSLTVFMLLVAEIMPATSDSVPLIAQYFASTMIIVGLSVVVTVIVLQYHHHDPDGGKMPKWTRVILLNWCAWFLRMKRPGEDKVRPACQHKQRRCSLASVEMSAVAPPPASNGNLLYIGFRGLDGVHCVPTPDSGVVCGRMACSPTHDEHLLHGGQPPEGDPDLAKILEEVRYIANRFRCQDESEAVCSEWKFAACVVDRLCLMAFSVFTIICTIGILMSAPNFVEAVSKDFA

Neuronal acetylcholine receptor subunit alpha-7, sequence (Q05941 whole entry): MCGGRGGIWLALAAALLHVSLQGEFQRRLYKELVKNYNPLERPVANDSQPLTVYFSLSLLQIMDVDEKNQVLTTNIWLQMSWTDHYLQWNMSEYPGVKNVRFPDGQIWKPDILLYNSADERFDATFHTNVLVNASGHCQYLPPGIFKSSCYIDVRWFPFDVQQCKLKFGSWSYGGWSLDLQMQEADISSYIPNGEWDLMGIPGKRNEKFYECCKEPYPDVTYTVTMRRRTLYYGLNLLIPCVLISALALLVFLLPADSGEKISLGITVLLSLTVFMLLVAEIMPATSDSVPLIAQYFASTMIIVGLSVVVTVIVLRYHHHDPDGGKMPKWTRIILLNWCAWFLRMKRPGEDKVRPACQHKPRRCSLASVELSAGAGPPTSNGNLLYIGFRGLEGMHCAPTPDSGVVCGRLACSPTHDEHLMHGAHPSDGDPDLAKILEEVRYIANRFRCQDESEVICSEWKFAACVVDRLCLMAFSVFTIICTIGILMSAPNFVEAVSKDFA
Cytochrome P450 2D6, sequence (P10635 whole entry): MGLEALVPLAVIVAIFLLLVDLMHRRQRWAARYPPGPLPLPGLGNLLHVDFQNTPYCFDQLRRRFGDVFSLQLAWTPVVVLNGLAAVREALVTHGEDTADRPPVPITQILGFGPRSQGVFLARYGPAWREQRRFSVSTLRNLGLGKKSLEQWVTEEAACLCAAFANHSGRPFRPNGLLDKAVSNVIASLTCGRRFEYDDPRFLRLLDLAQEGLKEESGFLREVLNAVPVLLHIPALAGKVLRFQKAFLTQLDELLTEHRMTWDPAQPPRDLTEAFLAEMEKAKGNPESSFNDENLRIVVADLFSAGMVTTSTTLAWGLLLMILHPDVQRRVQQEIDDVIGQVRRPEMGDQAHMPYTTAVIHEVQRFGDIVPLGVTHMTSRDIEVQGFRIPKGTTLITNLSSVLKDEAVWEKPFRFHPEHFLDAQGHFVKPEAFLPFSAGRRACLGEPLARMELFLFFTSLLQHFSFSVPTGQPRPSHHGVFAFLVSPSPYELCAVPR
Cytochrome P450 1A2, sequence (P05177 whole entry): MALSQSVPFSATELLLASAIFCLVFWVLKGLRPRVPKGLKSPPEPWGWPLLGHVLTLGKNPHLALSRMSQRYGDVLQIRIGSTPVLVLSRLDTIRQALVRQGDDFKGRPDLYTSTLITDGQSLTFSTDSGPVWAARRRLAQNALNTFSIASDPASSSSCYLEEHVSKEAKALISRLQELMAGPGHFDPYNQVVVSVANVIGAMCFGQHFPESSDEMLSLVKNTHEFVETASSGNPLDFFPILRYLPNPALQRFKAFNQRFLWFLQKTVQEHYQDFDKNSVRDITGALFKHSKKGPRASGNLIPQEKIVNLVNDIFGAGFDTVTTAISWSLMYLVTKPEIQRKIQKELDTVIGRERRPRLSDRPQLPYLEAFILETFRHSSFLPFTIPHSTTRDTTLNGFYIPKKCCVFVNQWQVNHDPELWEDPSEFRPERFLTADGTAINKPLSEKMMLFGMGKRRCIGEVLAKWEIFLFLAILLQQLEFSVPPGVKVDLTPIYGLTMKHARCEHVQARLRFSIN
Cytochrome P450 2C9, sequence (P11712 whole entry): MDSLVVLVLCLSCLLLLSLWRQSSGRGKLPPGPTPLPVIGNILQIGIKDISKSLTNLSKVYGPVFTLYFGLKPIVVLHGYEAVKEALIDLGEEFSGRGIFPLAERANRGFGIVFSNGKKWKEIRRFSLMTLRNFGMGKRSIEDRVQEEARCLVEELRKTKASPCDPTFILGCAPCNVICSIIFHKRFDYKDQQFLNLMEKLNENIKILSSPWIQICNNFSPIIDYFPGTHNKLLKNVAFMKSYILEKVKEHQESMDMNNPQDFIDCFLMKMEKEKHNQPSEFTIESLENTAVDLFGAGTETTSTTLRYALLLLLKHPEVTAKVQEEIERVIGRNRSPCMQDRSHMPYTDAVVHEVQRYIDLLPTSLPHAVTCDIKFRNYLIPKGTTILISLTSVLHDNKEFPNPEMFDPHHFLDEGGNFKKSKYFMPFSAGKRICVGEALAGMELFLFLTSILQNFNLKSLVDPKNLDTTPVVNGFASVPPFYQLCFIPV
Cytochrome P450 3A4, sequence (P08684 whole entry): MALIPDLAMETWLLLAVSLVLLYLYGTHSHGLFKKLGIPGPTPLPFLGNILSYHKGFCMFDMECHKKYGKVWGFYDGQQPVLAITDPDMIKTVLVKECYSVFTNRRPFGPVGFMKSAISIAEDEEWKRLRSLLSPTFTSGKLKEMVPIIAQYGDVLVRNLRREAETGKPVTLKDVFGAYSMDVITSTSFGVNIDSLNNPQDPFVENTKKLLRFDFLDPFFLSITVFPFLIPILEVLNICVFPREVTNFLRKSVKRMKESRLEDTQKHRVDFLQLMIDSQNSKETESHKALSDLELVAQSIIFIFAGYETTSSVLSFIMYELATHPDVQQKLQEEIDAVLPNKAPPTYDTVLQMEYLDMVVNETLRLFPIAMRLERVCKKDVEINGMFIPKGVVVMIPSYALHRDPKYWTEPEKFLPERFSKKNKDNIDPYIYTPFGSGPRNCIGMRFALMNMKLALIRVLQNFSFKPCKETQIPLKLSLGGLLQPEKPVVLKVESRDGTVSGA
Cytochrome P450 2C19, sequence (P33261 whole entry): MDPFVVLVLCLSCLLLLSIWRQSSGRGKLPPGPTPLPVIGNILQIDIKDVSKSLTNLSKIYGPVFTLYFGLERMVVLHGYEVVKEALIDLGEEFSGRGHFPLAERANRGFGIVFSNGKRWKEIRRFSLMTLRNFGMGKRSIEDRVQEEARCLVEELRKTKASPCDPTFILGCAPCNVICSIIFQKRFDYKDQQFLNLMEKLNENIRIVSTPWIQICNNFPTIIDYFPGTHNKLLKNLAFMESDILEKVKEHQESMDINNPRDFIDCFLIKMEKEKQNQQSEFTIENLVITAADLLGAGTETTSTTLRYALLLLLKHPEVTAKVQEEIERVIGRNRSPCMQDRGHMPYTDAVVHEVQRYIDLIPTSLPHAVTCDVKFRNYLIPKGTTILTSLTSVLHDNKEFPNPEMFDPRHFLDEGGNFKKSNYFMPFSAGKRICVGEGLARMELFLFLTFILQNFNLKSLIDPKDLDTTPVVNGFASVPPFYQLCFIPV

`O=C1O[C@]2(CN3CCC2CC3)CN1c1ccc(Cl)s1`: the Activity entry on Cytochrome P450 1A2, at Cytochrome P450 3A4, on Cytochrome P450 2C9 and on Cytochrome P450 2C19 was “Not Active” each time. Also, on Cytochrome P450 2D6, the midpoint of inhibition, the IC50, lay at 2000 nM.

`O=C1O[C@]2(CN3CCC2CC3)CN1c1ccc2c(c1)OCC2` gave a Ki in series [1] of 410 nM.

On to `O=C1O[C@]2(CN3CCC2CC3)CN1c1ccc2c(c1)OCCO2`, for which the affinity in series [1] corresponds to a Ki of 175 nM. Against the preceding compound, the Ki is about 2.3-fold lower.

`Cn1c(=O)oc2cc(N3CC4(CN5CCC4CC5)OC3=O)ccc21` (single isomer, unassigned) gave an IC50 in series [1] above 1000 nM.

With `Cc1oc2ccc(N3C[C@]4(CN5CCC4CC5)OC3=O)cc2c1C`, on Cytochrome P450 2D6, the 50% inhibitory concentration (IC50) was above 30000 nM. For the same compound, the Ki in series [1] was 4 nM.

Turning to `O=C1OC2(CN3CCC2CC3)CN1c1ccc2ncccc2c1` (single isomer, unassigned), the IC50 in series [1] is above 1000 nM.

On to `CCc1coc2ccc(N3C[C@@]4(CN5CCC4CC5)OC3=O)cc12`, for which the IC50 against Cytochrome P450 2D6 was found to be 21000 nM. The Ki in series [1] was 8 nM.

With `Cc1cc2cc(N3C[C@@]4(CN5CCC4CC5)OC3=O)ccc2o1`, the IC50 on Cytochrome P450 2D6 is above 30000 nM. For the same compound, the Ki in series [1] turned out to be 38 nM.

For `O=C1O[C@@]2(CN3CCC2CC3)CN1c1ccc2occ(Br)c2c1`, on Cytochrome P450 2D6, the IC50 was above 30000 nM. Moreover, the affinity in series [1] corresponds to a Ki of 4 nM.

The compound `O=C1O[C@]2(CN3CCC2CC3)CN1c1ccc2sc(Cl)cc2c1` came in with an IC50 at Cytochrome P450 2D6 above 30000 nM. The same compound came in with a Ki in series [1] of 34 nM.

For `O=C1O[C@@]2(CN3CCC2CC3)CN1c1ccc2c(c1)CCC2`, in series [1], the Ki turned out to be 200 nM.

As for `O=C1O[C@]2(CN3CCC2CC3)CN1c1ccc2c(c1)OCO2`, the IC50 against Cytochrome P450 2D6 is above 30000 nM. The Activity entry in series [2] was “Agonist”. In series [1], this compound returned a Ki of 37 nM.

For `O=C1O[C@]2(CN3CCC2CC3)CN1c1ccc2ccoc2c1`, the affinity in series [1] corresponds to a Ki of 50 nM.
